Experimental data published in patent US20030083381A1, “Hair growth or hair formation controlling agents” (priority 2000, published 2003).
Where two headings read alike, the source gives them in different places. Values belong to the compound of their own block, whether it stands above or below them.

Legend:
EP4 Receptor = EP4 Receptor (Oryctolagus cuniculus, UniProt Q28691); experiment: Magnus experiment using rabbit saphenous vein (relaxation of 40 mM KCl contraction); type: cell-based
Experimental: Magnus Experiment Using Rabbit Saphenous Vein
Investigation of agonistic activity to EP4 was carried out by an improved method of the method of Lydford et al. (S. J. Lydford et al., Br. J. Pharmacol. 117, 13-20 (1996)) using rabbit saphenous veins. That is, each rabbit was deeply anesthetized by administering pentobarbital (50 mg/kg) to auricular vein, and then sacrificed by bleeding by cutting carotid artery. Saphenous vein was carefully but quickly removed and transferred into Krebs solution (NaCl 118.1 mM, KCl 5.31 mM, MgSO4 1.01 mM, CaCl2 3.52 mM, NaH2PO4 1.09 mM, NaHCO3 25.0 mM, glucose 9.99 mM, pH 7.4) which was preliminarily saturated with 95% O2+5% CO2 mixed gas. The connective tissue and the fatty tissue of each saphenous vein were isolated using a scissors for ophthalmology to prepare a ring preparation with a width of about 4 mm. This ring preparation was mounted on a hook for blood vessels, and then suspended in a Magnus tube filled with Krebs solution aerated with 95% O2+5% CO2 mixed gas and kept at 37° C. The isometric tension of each blood vessel was recorded on a recorder through an isometric transducer. To each blood vessel, a base tension of 1.0 g was applied and the blood vessel tissue was stabilized for about 30 minutes until the baseline became stabilized. After the baseline became stable, the blood vessel was contracted with 40 mM KCl, and the shrinkage and washing were repeated until the contraction became stable. After the contraction with KCl became stable, a thromboxane antagonist S-145 (1000 nM) was applied previously and then cumulative application experiments of Compounds 1 to 7 were carried out. More specifically, the reactivity to PGE2 which was a positive control drug was measured, and after washing, the action of each compound was studied. The effectiveness of each drug was expressed in terms of the concentration (EC50) at which the rate of relaxation of the test drug to the contraction by 40 mM KCl was 50%. EC50 value was calculated by plotting logarithm of the concentration of each drug along the abscissa and plotting the rate of relaxation with respect to the contraction by 40 mM KCl along the ordinate, and by determining the concentration at which the height of contraction was 50% based on the linear area of the concentration-reaction curve in each experiment. [drawing 39]

epilated rabbit models [1] = experiment: Hair-growth/generation test in young epilated rabbits (8 weeks old), subcutaneous, once a day from 2nd to 7th day; type: in vivo, New Zealand White rabbits; conditions: young rabbits 8 weeks old
Experimental: (§1) Hair-Growing or Hair-Generating Action
The test was carried out as follows. The hair on the back of each rabbit was removed and evacream was applied for a short time to the back so as to epilate the back. After wiping the epilated region with water, test compound was subcutaneously administered to the back at a dose of 0.25 ml/kg once a day from the second day to 7th day after epilation. The length of the hair was measured.

[2] = target: T1, human PGE2 receptor subtype EP4 (Homo sapiens, UniProt P35408); experiment: Receptor binding experiment using PGE2 receptor subtype-expressing cells (3H-PGE2 displacement, membrane fractions); conditions: human PGE2 receptor subtypes EP2, EP3, EP4
T1 construct: expressed in transfected cells; host or cells: COS-7 cells, transient expression; membrane specimens
Experimental: Receptor Binding Experiment Using PGE2 Receptor Subtype-expressing Cells
The compound of the Formula (I) described above was tested for its selective binding activity to EP4 receptor by using PGE2 receptor subtype-expressing cells.
According to the reported method (Breyer,R. M. et al., J. Biol. Chem. 269,6163-6169(1994)), cloned human PGE2 receptor subtypes (EP3 and EP4) were transiently expressed by COS-7 cells. EP2 was stably expressed by CHO cells. These cells were prepared into membrane specimens. Each of the prepared membrane fractions (10 μg/tube) was incubated with a reaction solution containing ^3H—PGE2 at 30° C. for 1 hour. The reaction was terminated by iced buffer (10 mM MES(pH 6.0), 10 mM MgCl2, 1 mM EDTA), and the resultant was subjected to filtration by means of suction under reduced pressure to trap the bound ^3H-PGE2 on a glass filter (GF/C), followed by measurement of the radioactivity with a liquid scintillation counter.
The Kd value was determined from Scatchard plot according to the conventional method. Non-specific binding was determined in terms of the amount of bound radioactivity in the presence of an excess amount (5 μM) of non-labeled PGE2. […]
The dissociation constant Ki (nM) of Compound 1 was calculated according to the following equation: […]

epilated rabbit models [3] = experiment: Hair-growth/generation test in epilated rabbits, subcutaneous, once a day from 2nd to 20th day; type: in vivo; conditions: for Length of New Hair (mm) / Rate of Hair-generated Area (%): mean ± standard error
Experimental: as §1
The test was carried out as follows. The hair on the back of each rabbit was removed with an electric clipper and evacream was applied for a short time to the back so as to epilate the back. After wiping the epilated region with water, test compound was subcutaneously administered to the back at a dose of 0.25 ml/kg (dissolved in 0.9% sodium chloride solution) once a day from the second day to 20th day after epilation. The state of generation of hair was observed and the length of the hair was measured.

[4] = relaxation of contraction by 40 mM KCl, thromboxane antagonist S-145 (1000 nM) present, read-out: EC50 (nM), agonistic activity to EP4 receptor in rabbit saphenous vein relaxation reaction

Chain of EP4 Receptor (Q28691 whole entry): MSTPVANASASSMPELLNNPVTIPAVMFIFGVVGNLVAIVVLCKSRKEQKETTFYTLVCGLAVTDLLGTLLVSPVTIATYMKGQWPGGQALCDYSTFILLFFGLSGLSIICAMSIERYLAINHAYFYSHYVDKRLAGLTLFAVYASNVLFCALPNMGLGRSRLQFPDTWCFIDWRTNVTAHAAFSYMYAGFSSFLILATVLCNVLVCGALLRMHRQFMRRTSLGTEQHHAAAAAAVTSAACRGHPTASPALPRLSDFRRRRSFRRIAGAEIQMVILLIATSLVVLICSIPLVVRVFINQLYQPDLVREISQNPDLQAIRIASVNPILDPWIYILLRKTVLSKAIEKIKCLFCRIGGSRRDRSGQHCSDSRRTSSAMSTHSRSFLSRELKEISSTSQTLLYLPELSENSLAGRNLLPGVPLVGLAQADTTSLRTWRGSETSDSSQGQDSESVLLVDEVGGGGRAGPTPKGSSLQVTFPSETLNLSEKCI
T1 sequence (P35408 whole entry): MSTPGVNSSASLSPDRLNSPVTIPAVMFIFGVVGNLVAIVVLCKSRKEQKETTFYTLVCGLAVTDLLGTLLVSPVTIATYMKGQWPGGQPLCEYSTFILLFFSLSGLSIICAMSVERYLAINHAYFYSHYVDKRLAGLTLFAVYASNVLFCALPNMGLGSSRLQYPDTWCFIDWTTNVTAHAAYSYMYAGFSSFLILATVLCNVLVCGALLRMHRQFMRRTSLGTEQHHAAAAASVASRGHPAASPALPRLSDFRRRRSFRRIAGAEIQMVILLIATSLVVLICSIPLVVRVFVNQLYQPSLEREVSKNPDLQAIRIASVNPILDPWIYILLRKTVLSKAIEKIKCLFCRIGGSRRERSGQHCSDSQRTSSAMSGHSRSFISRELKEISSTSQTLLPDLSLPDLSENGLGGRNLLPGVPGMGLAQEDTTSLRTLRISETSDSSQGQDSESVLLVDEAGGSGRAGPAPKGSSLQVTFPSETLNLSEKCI

EC50 (EP4 Receptor; [4]): 3 nM
SMILES: OC(C=CC1C(O)CC2Oc3c(CCc4nnn[nH]4)cccc3C21)CC1CCCCC1 (stereo not shown) [Compound 2]
Length of New Hair (mm) (epilated rabbit models [1]; 0.03 mg/kg s.c., 7th day, mean ± standard error, p < 0.05 vs. control): 11.7 ± 0.5 mm
length of the new hair (in words) (epilated rabbit models [1]; s.c. once a day): increased

SMILES: CC(C)(Cc1ccccc1)C(O)C=CC1C(O)CC2Oc3c(CCC(=O)O)cccc3C21 (stereo not shown) [Compound 4]
EC50 (EP4 Receptor): 7 nM

SMILES: O=C(O)C=Cc1cccc2c1OC1CC(O)C(C=CC(O)CC3CCCCC3)C21 (stereo not shown) [Compound 3]
EC50 (EP4 Receptor): 6 nM

SMILES: O=C(O)CCc1cccc2c1O[C@H]1C[C@@H](O)[C@H](/C=C/[C@@H](O)CC3CCCCC3)[C@@H]21 [Compound 1]
selectivity to EP4 receptor subtype (binding abilities to other receptor subtypes are low) [2]: high selectivity
Rate of Rabbits with 50% or More Hair-Generated Area (epilated rabbit models [3]; 0.03 mg/kg s.c., 20th day): 1/4
Length of New Hair (mm) (epilated rabbit models [3]; 0.03 mg/kg s.c., 20th day): 6.0 ± 0.6 mm
Rate of Hair-generated Area (%) (epilated rabbit models [3]; 0.03 mg/kg s.c., 20th day): 15.8 ± 13.2%
Rate of Hair-generated Area (%) (epilated rabbit models [3]; 0.1 mg/kg s.c., 20th day): 48.8 ± 13.6%
Length of New Hair (mm) (epilated rabbit models [3]; 0.1 mg/kg s.c., 20th day, p < 0.05 vs. control): 7.3 ± 0.5 mm
length of the new hair (in words) (epilated rabbit models [3]; epilated rabbits, s.c. once a day): increased
EC50 (EP4 Receptor): 6 nM

EC50 (EP4 Receptor; [4]): 26 nM
SMILES: CC(C)(C(O)C=CC1C(O)CC2Oc3c(OCC(=O)O)cccc3C21)C1CCCCC1 (stereo not shown) [Compound 5]

EC50 (EP4 Receptor; [4]): 33 nM
SMILES: O=C(O)CSc1cccc2c1OC1CC(O)C(C=CC(O)CC3CCCCC3)C21 (stereo not shown) [Compound 6]

SMILES: O=C(O)CCc1cccc2c1OC1CC(O)C(C=CC(O)C(F)(F)C3CCCCC3)C21 (stereo not shown) [Compound 7]
EC50 (EP4 Receptor): 2 nM
